Article PMC6197744, “Triazolo[4,5-d]pyrimidines as Validated General Control Nonderepressible 2 (GCN2) Protein Kinase Inhibitors Reduce Growth of Leukemia Cells” (Computational and Structural Biotechnology Journal, 2018)

How the values were obtained:
Assay in all cases: Broad kinase panel screen (split-luciferase)
Format in all cases: binding
ACVR2A/ACVR2 = molecular target: T1, ACVR2A/ACVR2 (Homo sapiens, UniProt P27037); settings: ACVR2A/ACVR2, 0.5 uM
T1 construct: purchased Luceome Biotechnologies
Description: (§1) Compound 2 was screened against a standard panel of 50 protein kinases by Luceome Biotechnologies (Tucson, AZ). In brief, Compound 2 was dissolved and diluted in DMSO to a concentration of 12.5 μM from a 10 mM stock solution. As a control, compound 2 was evaluated for false positive against split-luciferase. For kinase assays, each C-terminal half of firefly luciferase linked kinase (Cfluc-Kinase) was translated along with the coiled coil Fos attached to the N-terminal fragment (Nfluc) (Fos-Nfluc) using rabbit reticulocyte lysate at 30 °C for 90 min. 24 µL aliquot of this lysate containing 1 µL of either DMSO or Compound 2 (at a final concentration 0.5 μM) was incubated for 30 minutes at room temperature followed by 1 hour incubation in the presence of a kinase specific probe. Finally, 80 µL of luciferin assay reagent was added and luminescence was immediately measured on a luminometer. Compound 2 was screened in duplicate against each kinase.
(§2) The % Inhibition and % Activity Remaining was calculated using the following equations: […]

AKT2 = molecular target: T2, AKT2 (Homo sapiens, UniProt P31751); settings: AKT2, 0.5 uM
T2 construct: purchased Luceome Biotechnologies
Description: as §1, §2

AMPK-a1/AMPK = molecular target: T3, AMPK-a1/AMPK (Homo sapiens, UniProt Q13131)
T3 construct: purchased Luceome Biotechnologies
Description: as §1, §2

AURKA = molecular target: T4, AURKA (Homo sapiens, UniProt O14965)
T4 construct: purchased Luceome Biotechnologies
Description: as §1, §2

AURKB = molecular target: T5, AURKB (Homo sapiens, UniProt Q96GD4)
T5 construct: purchased Luceome Biotechnologies
Description: as §1, §2

AURKC = molecular target: T6, AURKC (Homo sapiens, UniProt Q9UQB9)
T6 construct: purchased Luceome Biotechnologies
Description: as §1, §2

CAMK1D = molecular target: T7, CAMK1D (Homo sapiens, UniProt Q8IU85)
T7 construct: purchased Luceome Biotechnologies
Description: as §1, §2

CAMK2D = molecular target: T8, CAMK2D (Homo sapiens, UniProt Q13557)
T8 construct: purchased Luceome Biotechnologies
Description: as §1, §2

CDK5 = molecular target: T9, CDK5 (Homo sapiens, UniProt Q00535); settings: CDK5, 0.5 uM
T9 construct: purchased Luceome Biotechnologies
Description: as §1, §2

EPHA5 = molecular target: T10, EPHA5 (Homo sapiens, UniProt P54756); settings: EPHA5, 0.5 uM
T10 construct: purchased Luceome Biotechnologies
Description: as §1, §2

EPHB2 = molecular target: T11, EPHB2 (Homo sapiens, UniProt P29323); settings: EPHB2, 0.5 uM
T11 construct: purchased Luceome Biotechnologies
Description: as §1, §2

FLT1/VEGFR1 = molecular target: T12, FLT1/VEGFR1 (Homo sapiens, UniProt P17948); settings: FLT1/VEGFR1, 0.5 uM
T12 construct: purchased Luceome Biotechnologies
Description: as §1, §2

FLT3 = molecular target: T13, FLT3 (Homo sapiens, UniProt P36888); settings: FLT3, 0.5 uM
T13 construct: purchased Luceome Biotechnologies
Description: as §1, §2

HCK = molecular target: T14, HCK (Homo sapiens, UniProt P08631)
T14 construct: purchased Luceome Biotechnologies
Description: as §1, §2

MAP3K10 /MLK2 = molecular target: T15, MAP3K10 /MLK2 (Homo sapiens, UniProt Q02779); settings: MAP3K10 /MLK2, 0.5 uM
T15 construct: purchased Luceome Biotechnologies
Description: as §1, §2

MAP3K11/MLK3 = molecular target: T16, MAP3K11/MLK3 (Homo sapiens, UniProt Q16584); settings: MAP3K11/MLK3, 0.5 uM
T16 construct: purchased Luceome Biotechnologies
Description: as §1, §2

MAPK14/p38a = molecular target: T17, MAPK14/p38a (Homo sapiens, UniProt Q16539)
T17 construct: purchased Luceome Biotechnologies
Description: as §1, §2

MARK1 = molecular target: T18, MARK1 (Homo sapiens, UniProt Q9P0L2); settings: MARK1, 0.5 uM
T18 construct: purchased Luceome Biotechnologies
Description: as §1, §2

MARK2 = molecular target: T19, MARK2 (Homo sapiens, UniProt Q7KZI7); settings: MARK2, 0.5 uM
T19 construct: purchased Luceome Biotechnologies
Description: as §1, §2

MST2 = molecular target: T20, MST2 (Homo sapiens, UniProt Q13188); settings: MST2, 0.5 uM
T20 construct: purchased Luceome Biotechnologies
Description: as §1, §2

MUSK = molecular target: T21, MUSK (Homo sapiens, UniProt O15146)
T21 construct: purchased Luceome Biotechnologies
Description: as §1, §2

PDK1/PDPK1 = molecular target: T22, PDK1/PDPK1 (Homo sapiens, UniProt O15530); settings: PDK1/PDPK1, 0.5 uM
T22 construct: purchased Luceome Biotechnologies
Description: as §1, §2

PIM1 = molecular target: T23, PIM1 (Homo sapiens, UniProt P11309); settings: PIM1, 0.5 uM
T23 construct: purchased Luceome Biotechnologies
Description: as §1, §2

PKCe/PRKCE = molecular target: T24, PKCe/PRKCE (Homo sapiens, UniProt Q02156)
T24 construct: purchased Luceome Biotechnologies
Description: as §1, §2

PKX/PRKX = molecular target: T25, PKX/PRKX (Homo sapiens, UniProt P51817)
T25 construct: purchased Luceome Biotechnologies
Description: as §1, §2

PLK4 = molecular target: T26, PLK4 (Homo sapiens, UniProt O00444); settings: PLK4, 0.5 uM
T26 construct: purchased Luceome Biotechnologies
Description: as §1, §2

PTK2B/PYK2 = molecular target: T27, PTK2B/PYK2 (Homo sapiens, UniProt Q14289); settings: PTK2B/PYK2, 0.5 uM
T27 construct: purchased Luceome Biotechnologies
Description: as §1, §2

RSK2/RPS6KA3 = molecular target: T28, RSK2/RPS6KA3 (Homo sapiens, UniProt P51812); settings: RSK2/RPS6KA3, 0.5 uM
T28 construct: purchased Luceome Biotechnologies
Description: as §1, §2

SIK1/SNF1LK = molecular target: T29, SIK1/SNF1LK (Homo sapiens, UniProt P57059)
T29 construct: purchased Luceome Biotechnologies
Description: as §1, §2

SIK2 = molecular target: T30, SIK2 (Homo sapiens, UniProt Q9H0K1); settings: SIK2, 0.5 uM
T30 construct: purchased Luceome Biotechnologies
Description: as §1, §2

SRC = molecular target: T31, SRC (Homo sapiens, UniProt P12931)
T31 construct: purchased Luceome Biotechnologies
Description: as §1, §2

TNK1 = molecular target: T32, TNK1 (Homo sapiens, UniProt Q13470); settings: TNK1, 0.5 uM
T32 construct: purchased Luceome Biotechnologies
Description: as §1, §2

YANK2 = molecular target: T33, YANK2 (Homo sapiens, UniProt Q9NY57); settings: YANK2, 0.5 uM
T33 construct: purchased Luceome Biotechnologies
Description: as §1, §2

YSK1 = molecular target: T34, YSK1 (Homo sapiens, UniProt O00506); settings: YSK1, 0.5 uM
T34 construct: purchased Luceome Biotechnologies
Description: as §1, §2

T15 sequence (Q02779 whole entry): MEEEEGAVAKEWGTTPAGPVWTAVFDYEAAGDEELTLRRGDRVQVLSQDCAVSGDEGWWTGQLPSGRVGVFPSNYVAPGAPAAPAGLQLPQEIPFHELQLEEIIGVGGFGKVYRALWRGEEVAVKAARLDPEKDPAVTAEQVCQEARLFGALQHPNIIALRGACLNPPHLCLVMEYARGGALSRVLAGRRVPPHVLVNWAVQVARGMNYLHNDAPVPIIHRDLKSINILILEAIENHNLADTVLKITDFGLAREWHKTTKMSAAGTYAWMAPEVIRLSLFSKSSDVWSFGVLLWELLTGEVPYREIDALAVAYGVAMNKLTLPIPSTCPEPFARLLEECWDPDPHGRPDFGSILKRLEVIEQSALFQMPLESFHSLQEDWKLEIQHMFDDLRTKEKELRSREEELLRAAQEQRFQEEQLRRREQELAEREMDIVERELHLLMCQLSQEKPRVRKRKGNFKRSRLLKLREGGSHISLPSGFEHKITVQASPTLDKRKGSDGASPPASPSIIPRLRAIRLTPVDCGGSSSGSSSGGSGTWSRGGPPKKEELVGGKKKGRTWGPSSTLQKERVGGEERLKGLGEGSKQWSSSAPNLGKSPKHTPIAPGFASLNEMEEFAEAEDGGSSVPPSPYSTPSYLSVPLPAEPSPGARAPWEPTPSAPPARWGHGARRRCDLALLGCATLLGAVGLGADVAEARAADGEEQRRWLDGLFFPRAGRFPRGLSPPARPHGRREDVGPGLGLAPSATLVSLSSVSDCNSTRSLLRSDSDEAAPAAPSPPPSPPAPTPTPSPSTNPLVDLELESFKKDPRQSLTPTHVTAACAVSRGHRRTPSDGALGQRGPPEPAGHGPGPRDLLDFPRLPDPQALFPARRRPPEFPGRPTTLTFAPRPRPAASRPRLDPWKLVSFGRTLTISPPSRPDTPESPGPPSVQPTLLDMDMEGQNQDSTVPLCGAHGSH
T5 sequence (Q96GD4 whole entry): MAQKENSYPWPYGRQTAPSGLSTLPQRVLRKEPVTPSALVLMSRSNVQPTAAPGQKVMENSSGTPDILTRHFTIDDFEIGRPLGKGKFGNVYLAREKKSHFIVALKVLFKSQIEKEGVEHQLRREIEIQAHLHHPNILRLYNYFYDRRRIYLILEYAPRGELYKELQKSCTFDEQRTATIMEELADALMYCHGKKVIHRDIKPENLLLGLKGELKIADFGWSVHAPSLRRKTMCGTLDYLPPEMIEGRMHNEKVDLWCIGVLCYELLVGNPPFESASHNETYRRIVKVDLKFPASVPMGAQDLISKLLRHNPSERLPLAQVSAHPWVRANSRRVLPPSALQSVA
T33 sequence (Q9NY57 whole entry): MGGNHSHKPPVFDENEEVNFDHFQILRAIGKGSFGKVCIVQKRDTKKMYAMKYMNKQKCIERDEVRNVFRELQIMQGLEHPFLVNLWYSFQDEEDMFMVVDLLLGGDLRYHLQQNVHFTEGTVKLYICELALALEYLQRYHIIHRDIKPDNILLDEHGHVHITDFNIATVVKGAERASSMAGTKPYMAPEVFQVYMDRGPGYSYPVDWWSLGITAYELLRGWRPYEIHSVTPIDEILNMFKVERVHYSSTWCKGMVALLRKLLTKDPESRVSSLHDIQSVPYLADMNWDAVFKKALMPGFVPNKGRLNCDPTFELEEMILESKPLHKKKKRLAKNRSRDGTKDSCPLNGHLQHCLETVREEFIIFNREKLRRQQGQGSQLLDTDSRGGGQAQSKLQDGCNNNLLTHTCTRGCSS
T4 sequence (O14965 whole entry): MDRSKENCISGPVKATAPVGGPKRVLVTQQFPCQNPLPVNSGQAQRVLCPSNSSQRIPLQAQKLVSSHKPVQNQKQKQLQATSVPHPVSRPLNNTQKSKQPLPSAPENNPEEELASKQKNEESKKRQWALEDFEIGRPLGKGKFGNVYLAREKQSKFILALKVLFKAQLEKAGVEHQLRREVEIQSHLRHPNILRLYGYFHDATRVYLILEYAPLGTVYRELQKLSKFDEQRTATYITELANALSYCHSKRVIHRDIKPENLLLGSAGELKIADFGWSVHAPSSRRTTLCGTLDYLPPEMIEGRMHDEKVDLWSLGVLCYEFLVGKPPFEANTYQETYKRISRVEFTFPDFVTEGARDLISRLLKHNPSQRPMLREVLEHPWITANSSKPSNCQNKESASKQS
T19 sequence (Q7KZI7 whole entry): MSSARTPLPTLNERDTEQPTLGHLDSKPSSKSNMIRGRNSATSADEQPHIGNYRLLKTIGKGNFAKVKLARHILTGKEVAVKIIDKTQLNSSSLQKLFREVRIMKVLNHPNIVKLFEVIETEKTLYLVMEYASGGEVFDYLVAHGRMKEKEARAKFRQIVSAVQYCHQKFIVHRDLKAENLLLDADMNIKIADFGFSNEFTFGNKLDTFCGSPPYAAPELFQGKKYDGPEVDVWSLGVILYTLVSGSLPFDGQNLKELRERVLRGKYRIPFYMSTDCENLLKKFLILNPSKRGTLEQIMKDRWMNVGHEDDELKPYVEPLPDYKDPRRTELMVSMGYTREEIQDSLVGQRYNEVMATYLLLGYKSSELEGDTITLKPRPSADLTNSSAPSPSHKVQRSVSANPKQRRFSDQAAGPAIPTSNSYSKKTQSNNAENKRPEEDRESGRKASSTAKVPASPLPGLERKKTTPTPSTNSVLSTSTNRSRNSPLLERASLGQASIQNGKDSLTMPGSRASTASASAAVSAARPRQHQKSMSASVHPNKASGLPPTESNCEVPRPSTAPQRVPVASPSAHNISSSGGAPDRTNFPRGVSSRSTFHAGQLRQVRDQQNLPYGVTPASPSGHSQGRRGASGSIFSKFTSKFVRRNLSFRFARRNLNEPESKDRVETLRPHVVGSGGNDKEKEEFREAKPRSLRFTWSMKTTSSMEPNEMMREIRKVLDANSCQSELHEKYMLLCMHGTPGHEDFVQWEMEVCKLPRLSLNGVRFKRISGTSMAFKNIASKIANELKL
T11 sequence (P29323 19-1055): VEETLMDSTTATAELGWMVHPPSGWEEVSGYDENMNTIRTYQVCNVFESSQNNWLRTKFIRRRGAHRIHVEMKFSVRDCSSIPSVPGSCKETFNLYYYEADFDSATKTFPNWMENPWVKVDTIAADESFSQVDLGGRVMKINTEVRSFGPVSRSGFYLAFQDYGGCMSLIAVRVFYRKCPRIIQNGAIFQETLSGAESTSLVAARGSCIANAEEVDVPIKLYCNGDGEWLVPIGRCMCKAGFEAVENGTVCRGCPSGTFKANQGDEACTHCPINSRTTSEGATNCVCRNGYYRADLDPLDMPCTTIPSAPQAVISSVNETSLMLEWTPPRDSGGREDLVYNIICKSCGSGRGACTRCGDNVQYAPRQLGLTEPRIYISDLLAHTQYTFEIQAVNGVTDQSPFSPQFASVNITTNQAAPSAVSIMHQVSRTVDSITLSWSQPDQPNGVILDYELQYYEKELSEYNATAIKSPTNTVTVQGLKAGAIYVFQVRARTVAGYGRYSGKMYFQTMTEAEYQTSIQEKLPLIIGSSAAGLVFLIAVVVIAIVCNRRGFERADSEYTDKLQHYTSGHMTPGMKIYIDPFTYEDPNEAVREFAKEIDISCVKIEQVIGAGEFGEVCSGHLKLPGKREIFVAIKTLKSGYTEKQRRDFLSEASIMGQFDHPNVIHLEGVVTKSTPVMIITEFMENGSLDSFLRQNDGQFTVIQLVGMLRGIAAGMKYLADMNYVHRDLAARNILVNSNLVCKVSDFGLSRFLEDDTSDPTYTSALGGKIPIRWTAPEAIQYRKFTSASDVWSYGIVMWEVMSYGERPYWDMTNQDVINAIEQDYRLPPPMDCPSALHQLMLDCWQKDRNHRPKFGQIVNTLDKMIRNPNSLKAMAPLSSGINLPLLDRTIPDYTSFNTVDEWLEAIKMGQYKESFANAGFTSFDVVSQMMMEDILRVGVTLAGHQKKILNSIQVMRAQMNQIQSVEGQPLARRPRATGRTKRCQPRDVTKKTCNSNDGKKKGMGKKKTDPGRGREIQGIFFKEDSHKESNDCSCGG
T32 sequence (Q13470 whole entry): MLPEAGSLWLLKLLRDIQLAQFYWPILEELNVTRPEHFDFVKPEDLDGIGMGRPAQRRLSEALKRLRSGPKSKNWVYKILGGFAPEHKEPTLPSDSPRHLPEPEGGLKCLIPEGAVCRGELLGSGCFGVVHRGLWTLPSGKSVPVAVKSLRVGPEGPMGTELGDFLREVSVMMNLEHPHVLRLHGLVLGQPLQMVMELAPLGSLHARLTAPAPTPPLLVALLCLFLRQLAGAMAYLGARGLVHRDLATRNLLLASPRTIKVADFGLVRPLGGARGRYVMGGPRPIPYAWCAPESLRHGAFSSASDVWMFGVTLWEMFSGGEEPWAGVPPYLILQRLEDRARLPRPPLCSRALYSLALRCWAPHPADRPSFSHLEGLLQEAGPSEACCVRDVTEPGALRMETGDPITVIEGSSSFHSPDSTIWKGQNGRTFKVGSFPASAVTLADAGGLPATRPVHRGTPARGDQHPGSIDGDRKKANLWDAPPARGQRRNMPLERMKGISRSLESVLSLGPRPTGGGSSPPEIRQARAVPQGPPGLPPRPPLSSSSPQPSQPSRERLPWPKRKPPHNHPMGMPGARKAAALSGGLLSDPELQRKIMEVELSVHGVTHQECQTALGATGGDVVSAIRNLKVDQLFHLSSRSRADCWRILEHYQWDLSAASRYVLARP
T23 sequence (P11309 whole entry): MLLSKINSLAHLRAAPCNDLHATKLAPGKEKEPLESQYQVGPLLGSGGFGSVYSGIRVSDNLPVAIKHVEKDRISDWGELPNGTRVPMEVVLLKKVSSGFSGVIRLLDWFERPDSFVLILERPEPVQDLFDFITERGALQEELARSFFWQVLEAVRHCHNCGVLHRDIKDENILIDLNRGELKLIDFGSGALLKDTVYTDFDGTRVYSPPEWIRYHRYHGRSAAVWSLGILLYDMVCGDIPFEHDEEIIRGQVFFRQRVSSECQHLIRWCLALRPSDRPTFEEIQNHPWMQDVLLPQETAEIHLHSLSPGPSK

CCOc1ccc(-n2nnc3cnc(Nc4cnn(CC)c4)nc32)cc1 [Compound 2, 3-(4-Ethoxyphenyl)-N-(1-ethyl-1H-pyrazol-4-yl)-3H-[1,2,3]triazolo[4,5-d]pyrimidin-5-amine]
remaining activity at 0.5 µM (ACVR2A/ACVR2): 100%
remaining activity at 0.5 µM (AKT2): 96.8%
remaining activity at 0.5 µM (AMPK-a1/AMPK): 100%
remaining activity at 0.5 µM (AURKA): 97.1%
remaining activity at 0.5 µM (AURKB): 94.7%
remaining activity at 0.5 µM (AURKC): 98.7%
remaining activity at 0.5 µM (CAMK1D): 92.9%
remaining activity at 0.5 µM (CAMK2D): 89.9%
remaining activity at 0.5 µM (CDK5): 94.4%
remaining activity at 0.5 µM (EPHA5): 97.8%
remaining activity at 0.5 µM (EPHB2): 97.7%
remaining activity at 0.5 µM (FLT1/VEGFR1): 51.7%
remaining activity at 0.5 µM (FLT3): 100%
remaining activity at 0.5 µM (HCK): 96%
remaining activity at 0.5 µM (MAP3K10 /MLK2): 96.7%
remaining activity at 0.5 µM (MAP3K11/MLK3): 100%
remaining activity at 0.5 µM (MAPK14/p38a): 100%
remaining activity at 0.5 µM (MARK1): 100%
remaining activity at 0.5 µM (MARK2): 99.3%
remaining activity at 0.5 µM (MST2): 100%
remaining activity at 0.5 µM (MUSK): 100%
remaining activity at 0.5 µM (PDK1/PDPK1): 96.2%
remaining activity at 0.5 µM (PIM1): 93.4%
remaining activity at 0.5 µM (PKCe/PRKCE): 100%
remaining activity at 0.5 µM (PKX/PRKX): 97.7%
remaining activity at 0.5 µM (PLK4): 100%
remaining activity at 0.5 µM (PTK2B/PYK2): 96%
remaining activity at 0.5 µM (RSK2/RPS6KA3): 89.9%
remaining activity at 0.5 µM (SIK1/SNF1LK): 99.9%
remaining activity at 0.5 µM (SIK2): 100%
remaining activity at 0.5 µM (SRC): 99.1%
remaining activity at 0.5 µM (TNK1): 100%
remaining activity at 0.5 µM (YANK2): 100%
remaining activity at 0.5 µM (YSK1): 93.6%
